In PMC5394417, “Investigating the molecular mechanism of positive and negative allosteric modulators in the calcium-sensing receptor dimer” (Scientific Reports, 2017):

Molecular target: T1, HA-S147A CaSR mutant (Rattus norvegicus, UniProt P48442, S147A)
T1 construct: mGluR5 signal peptide (N); expressed in transfected cells; host or cells: HEK293T
T1 sequence (P48442 20-1079 S147A): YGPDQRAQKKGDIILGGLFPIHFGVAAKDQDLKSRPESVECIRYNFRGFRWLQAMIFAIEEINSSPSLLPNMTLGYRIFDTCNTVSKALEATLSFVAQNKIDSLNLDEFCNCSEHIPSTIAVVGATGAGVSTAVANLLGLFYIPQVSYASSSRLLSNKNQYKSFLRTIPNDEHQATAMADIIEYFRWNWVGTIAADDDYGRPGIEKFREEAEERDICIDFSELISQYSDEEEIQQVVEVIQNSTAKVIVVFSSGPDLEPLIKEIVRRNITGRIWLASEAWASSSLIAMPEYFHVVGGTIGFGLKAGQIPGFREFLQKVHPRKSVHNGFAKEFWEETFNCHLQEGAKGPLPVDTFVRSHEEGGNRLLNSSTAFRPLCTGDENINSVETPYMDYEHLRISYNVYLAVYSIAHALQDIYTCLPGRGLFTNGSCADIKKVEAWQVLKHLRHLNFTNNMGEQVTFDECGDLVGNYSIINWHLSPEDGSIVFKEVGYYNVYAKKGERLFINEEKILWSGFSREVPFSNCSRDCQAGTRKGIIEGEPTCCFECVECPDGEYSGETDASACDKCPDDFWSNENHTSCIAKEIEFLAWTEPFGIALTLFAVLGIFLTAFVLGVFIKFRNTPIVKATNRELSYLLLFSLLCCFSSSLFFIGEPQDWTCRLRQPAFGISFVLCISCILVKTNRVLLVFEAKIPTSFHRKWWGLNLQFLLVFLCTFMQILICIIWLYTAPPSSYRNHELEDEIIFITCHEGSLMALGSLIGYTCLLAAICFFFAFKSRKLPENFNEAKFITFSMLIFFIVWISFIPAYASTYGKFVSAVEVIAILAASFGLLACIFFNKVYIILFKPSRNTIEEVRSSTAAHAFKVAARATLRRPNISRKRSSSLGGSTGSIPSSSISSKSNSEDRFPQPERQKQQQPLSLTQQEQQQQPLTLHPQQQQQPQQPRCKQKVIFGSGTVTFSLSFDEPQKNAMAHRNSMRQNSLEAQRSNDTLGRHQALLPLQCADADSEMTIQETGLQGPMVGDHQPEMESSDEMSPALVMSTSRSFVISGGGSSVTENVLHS
Experiment: IP-One assay, HEK293T transiently transfected
Assay type: cell-based

## [Ca+2] [Ca^2+]
Ca^2+ alone
  EC50: 9.07 mM
  Hill coefficient ± S.E.M.: 3.50 ± 0.26
  pEC50 ± S.E.M.: 2.04 ± 0.01
Normalized to maximum response of WT CaSR
  Max ± S.E.M.: 150 ± 17%
